Assay results published in US7744867B2, “PTPase inhibitors and method of using same” (The Cleveland Clinic Foundation, priority 2001, dated 2010).

Key:
[1] = test system: Leishmaniasis; details: cited from earlier work
[2] = target: T1, intracellular Flag-PRL-2 (Homo sapiens, UniProt Q12974); assay: PTPase activity of anti-Flag immunocomplexes from NIH3T3 transfectants; type: cell-based
T1 construct: expressed in transfected cells; host or cells: NIH3T3
T1 sequence (Q12974 1-167): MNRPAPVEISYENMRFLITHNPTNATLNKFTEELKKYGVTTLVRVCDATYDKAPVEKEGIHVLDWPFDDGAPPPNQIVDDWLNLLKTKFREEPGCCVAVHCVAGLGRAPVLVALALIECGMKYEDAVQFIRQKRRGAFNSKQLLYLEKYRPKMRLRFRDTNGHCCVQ
Description: An expression construct of Flag-tagged PRL-1 or control vector was transfected into NIH3T3 cells which were then treated without or with sodium stibogluconate and used for immunoprecipitation assays with a monoclonal anti-Flag antibody. The immunocomplexes were analyzed by SDS-PAGE/Western blotting and PTPase assays. A Flag-tagged protein with a molecular weight approximately 22 kDa as expected for Flag-PRL-1 was detected in the immunocomplexes from untreated or sodium stibogluconate -treated Flag-PRL-1 transfectants but not in those from the control cells (FIG. 6A).
Flag-PRL-2 transfectants were briefly treated with sodium stibogluconate for 5 minutes, washed to remove cell-free drug and then incubated for various times prior to termination by cell lysis. Anti-Flag immunocomplexes from the cells were analyzed by SDS-PAGE/Western blotting and PTPase assays. The amounts of Flag-PRL-2 proteins in the immunocomplexes were at similar levels as quantified by probing with an anti-Flag antibody. […] PTPase activity of the immunocomplexes from cells incubated for 24 hours was 78% of the untreated cells.
Glucatime-induced inactivation of intracellular PRL-2 lasts more than 24 hours. NIH3T3 stable transfectant of Flag-tagged PRL-2 was treated with glucatime for 5 minutes, washed to remove cell free drug and then incubated for various times prior to termination by lysing the cells in lysis buffer. Flag-tagged PRL-2 was immunoprecipitated from the cell lysates using a monoclonal anti-Flag antibody. The amounts of Flag-tagged PRL-2 in the immunocomplexes were quantified by SDS-PAGE/Western blotting with the anti-Flag antibody (A). Activities of the immunocomplexes in dephosphorylating a synthetic phosphotyrosine peptide were determined by in vitro PTPase assays (B).

[3] = target: T2, intracellular MKP1 in WM9 cells (Homo sapiens, UniProt P28562); assay: PTPase activity of anti-MKP1 immunocomplexes from WM9 cells; type: cell-based; details: treated 5 minutes
T2 construct: endogenous in cells; host or cells: WM9 human melanoma cells
T2 sequence (P28562 whole entry): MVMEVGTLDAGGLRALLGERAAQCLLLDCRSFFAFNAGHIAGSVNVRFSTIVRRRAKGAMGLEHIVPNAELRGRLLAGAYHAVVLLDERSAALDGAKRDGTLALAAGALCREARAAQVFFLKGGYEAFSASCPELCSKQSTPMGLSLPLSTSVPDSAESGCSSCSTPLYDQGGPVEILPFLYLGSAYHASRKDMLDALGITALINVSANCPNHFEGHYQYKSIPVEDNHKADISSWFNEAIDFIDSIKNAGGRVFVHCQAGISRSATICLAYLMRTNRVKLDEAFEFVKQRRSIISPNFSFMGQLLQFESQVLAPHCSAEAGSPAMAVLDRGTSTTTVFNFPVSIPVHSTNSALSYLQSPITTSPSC
Description: FIG. 6C. Sodium stibogluconate inactivates intracellular PRL-2 in WM9 human melanoma cells. A. Relative PTPase activities of anti-Flag immunocomplexes from WM9 cells transfected with the control vector (V) or Flag-PRL-2 expression construct and then treated with different amounts of sodium stibogluconate for 5 minutes B. Relative amounts of Flag-PRL-2 in the immunocomplexes as determined by SDS-PAGE/Western blotting. C. Relative PTPase activities of anti-MKP1 immunocomplexes from WM9 cells treated with different amounts of sodium stibogluconate for 5 minutes. Relative amounts of MKP1 in the immunocomplexes as determined by SDS-PAGE/Western blotting.
Flag-PRL-2 protein was detected in anti-Flag immunocomplexes from WM9 cells tranfected with an expression construct of Flag-PRL-2 but not in those from vector transfectants expected.

[4] = target: T3, recombinant PRL-2 (Homo sapiens, UniProt Q12974); assay: In vitro PTPase assay with recombinant PRL; type: biochemical; details: washing process / stable complex
T3 construct: made in house; host or cells: E. coli DH5α
T3 sequence (Q12974 1-167): T1 sequence (Q12974 1-167)
Description: In vitro PTPase activities were measured using the commercial protein tyrosine phosphatase assay kit (UBI) following established procedure. […] 100 μl of Malachite Green solution was added and incubated for 5 minutes, and the absorbance at 660 nm was measured after 5 minutes.
Recombinant GST fusion proteins of human PRL-1, 2 and 3 phosphatases were purified with glutathione beads from DH5α bacteria transformed by pGEX vectors containing cDNA fragments encoding the human PRLs which were generated by RT-PCR from H9 cells and confirmed by sequence analysis. Activities of the purified recombinant PRL proteins in dephosphorylating DiFMUP in the absence or presence of various inhibitors were measured following established procedure.
To assess whether sodium stibogluconate is an inhibitor of oncogenic PRL phosphatases, its effects on the PTPase activity of recombinant PRLs were evaluated by in vitro PTPase assays.

[5] = test system: WM35 cells (Melanoma); assay: Growth inhibition of human tumor cell lines; type: cell-based; details: SS 12.5 μg/ml, IFNα 1,000 u/ml, alone or combined
[6] = test system: WM9 cells; assay: Apoptotic cells by Annexin V/propidium iodide assay (fluorescent microscopy); type: cell-based, human; details: 3 days, control 5%
Description: Detection of apoptotic cells by Annexin V/propidium iodide assay. Annexin V staining of exposed membrane phospholipid phosphatidylserine (PS) was done using the Annexin V assay kit (Pharmingen, San Diego, Calif.). Briefly, U266 or WM9 cells were cultured in the 10% FCS RPMI 1640 medium in the absence or presence of sodium stibogluconate, IFNα, or both for 3 days. Cells were then washed in PBS twice and stained in binding buffer (10 mM Hepes, pH 7.4; 140 mM NaCl; 2.5 mM CaCl2) containing Annexin V-FITC and propidium iodide for 15 min. The reaction was stopped by adding 10 volumes of binding buffer and analyzed by FACS (Becton Dickinson Facsvantage) or fluorescent microscopy.

[7] = test system: Peer cells (T-ALL); assay: Growth inhibition of human tumor cell lines; type: cell-based; details: SS 12.5 μg/ml, IFNα 1,000 u/ml, alone or combined
[8] = test system: RC45 cells (Renal cell carcinoma); assay: Growth inhibition of human tumor cell lines; type: cell-based; details: SS 12.5 μg/ml, IFNα 1,000 u/ml, alone or combined

| Compound | efficacy in Leishmaniasis ([1]; 20 mg Sb/kg body weight per day i.m. daily for 10-14 days) | known toxicity profile ([1]; human, in vivo) | single dose used without serious toxicity ([1]; human, in vivo) | PTPase activity of Flag-PRL-2 immunocomplexes from treated transfectants ([2]; treated 5 min) | duration of intracellular PRL-2 inactivation ([2]; treated 5 minutes, washed to remove cell free drug) | effect on MKP1 PTPase activity in WM9 cells [3] | reversibility of PRL-2 inactivation [4] | % of growth inhibition by day 6 (±s.d.) [5] | percentage of apoptotic cells [6] [%] | % of growth inhibition by day 6 (±s.d.) [7] | % of growth inhibition by day 6 (±s.d.) [8] |
| --- | --- | --- | --- | --- | --- | --- | --- | --- | --- | --- | --- |
| O.O.O.O.O.O.O.O.O.O=C([O-])[C@@H]1[O][Sb]2([O-])([O][Sb]34([OH])[O][C@H]([C@H](O)CO)[C@H]([O]3)[C@H](C(=O)[O-])[O]4)[O][C@H]([C@H](O)CO)[C@@H]1[O]2.[Na+].[Na+].[Na+] [sodium stibogluconate] | 70-100% | modest cardiac toxicity and leukopenia | up to 143 mg Sb/kg | lack of PTPase activity | at least 24 hours | no marked effects | irreversibly inhibits |  |  |  |  |
| IFNα |  |  |  |  |  |  |  | 19 (3) % | 15 | 86 (4) % | 70 (15) % |
